What was measured:
[1] = Metabolites in rat liver microsomes (systems I-rat, II-rat); type: in vitro ADME, Sprague-Dawley rat
Method: Then, NADPH-B (10 μl) was added and incubated for 2 h. […] Then, UDPGA (50 μl) was added and incubated for 2 h. […] Then, UDPGA (50 μl) was added and incubated for 2 h. In addition, the naringenin solution (1 mM, 10 μl) was evaluated in rat systems I, II, and III as above.
(§1) The incubated solution (500 μl) of systems I-rat, II-rat, III-rat, I-human, and II-human were extracted with ethyl acetate (500 μl) for at least 3 min by vortexing and centrifuged for 10 min at 13,000 rpm and 4°C. The extraction process described above was performed twice and all supernatants were transferred into centrifuge tubes, dried with N2, and dissolved with methanol-water (1:1, v/v). All samples were injected into a UPLC/Q-TOF-MS system consisting of a Waters Acquity ultra performance liquid chromatography (UPLC) coupled with a Micromass micro™ quadrupole time-of-flight mass spectrometry (Q-TOF-MS) system (Waters Corp., Milford, MA, USA), equipped with an electrospray ionization source, and controlled by the MassLynx (v. 4.1) software. Separation was performed on a Waters Acquity UPLC BEH C18 column (50 mm × 2.1 mm, 1.7 μm) at 40°C. The mobile phase consisted of 0.1% formic acid (v/v) in water (A) and methanol (B) using a linear gradient of 95% to 60% A (0–25 min), 60% to 40% A (25–35 min), 40% to 10% A (35–40 min), 10% A (40–43 min), 10% to 95% A (43–44 min), and 95% A (44–45 min). The injection volume was 5 μl with flow rate of 0.2 ml min^-1. The Q-TOF-MS worked in a full scan mode (100–1,200 m/z), selection ion mode, and product ion mode, in negative ion mode, respectively. The conditions were as follows: capillary voltage 3,000 V, sample cone voltage 30 V, extraction cone voltage 2.0 V, source temperature 100°C, desolvation temperature 350°C, cone gas (N2) flow rate of 40 L/h, desolvation gas (N2) flow rate of 700 L/h, low collision energy 6.0 eV, and high collision energy 20–80 eV. Compounds were detected with accurate mass using leucine enkephalin for mass correction at 554.2615 (m/z) in negative ionization mode.

[2] = Metabolites in human liver microsomes (systems I-human, II-human); type: in vitro ADME
Method: Then, NADPH-B (10 μl) was added and the mixed solution incubated for 2 h. […] Next, UDPGA (50 μl) was added and the mixed solution incubated for 2 h. In addition, the naringenin solution (1 mM, 10 μl) was evaluated in human systems I and II as above.
as §1

Structure (SMILES) | found in rat liver microsomes, incubation of naringenin (S) [1] | found in human liver microsomes, incubation of naringenin (S) [2]
O=c1cc(-c2ccc(O)cc2)oc2cc(O)cc(O)c12 [M6, Apigenin] | + | +
O=C1C[C@@H](c2ccc(O)c(O)c2)Oc2cc(O)cc(O)c21 [M7, Eriodictyol] | + | +
COc1ccc([C@@H]2CC(=O)c3c(O)cc(O)cc3O2)cc1O [M8, Hesperetin] | + | 

From article PMC7118210 (Frontiers in Pharmacology, 2020)
